Reference: patent US20120129843A1, “PYRIDYL-THIAZOLYL INHIBITORS OF PRO-MATRIX METALLOPROTEINASE ACTIVATION” (priority 2010, published 2012)
Counter-ions that a name gives are not always drawn.

How the values were obtained:
[1] = molecular target: T1, proMMP9(67-444;ΔFnII) (SEQ ID NO:5) (Homo sapiens, UniProt P14780, DEL216-390); assay: ThermoFluor binding assay with proMMP9(67-444;ΔFnII)
T1 construct: start methionine (N); made in house; host or cells: E. coli BL21(DE3) RIL
T1 sequence (P14780 with tags, fused parts or gaps DEL216-390): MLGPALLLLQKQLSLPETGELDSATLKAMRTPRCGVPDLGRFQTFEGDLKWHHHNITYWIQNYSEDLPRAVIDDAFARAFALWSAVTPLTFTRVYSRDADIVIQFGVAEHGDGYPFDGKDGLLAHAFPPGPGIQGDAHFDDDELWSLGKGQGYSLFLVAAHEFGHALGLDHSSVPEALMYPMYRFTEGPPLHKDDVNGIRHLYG
Experimental: The ThermoFluor® (TF) assay is a 384-well plate-based binding assay that measures thermal stability of proteins (Biomol Screen 2001, 6, 429-40; Biochemistry 2005, 44, 5258-66). The experiments were carried out using instruments available from Johnson & Johnson Pharmaceutical Research & Development, LLC. TF dye used in all experiments was […] (1,8-ANS) (Invitrogen: A-47).
Compounds were arranged in a pre-dispensed plate (Greiner Bio-one: 781280), wherein compounds were serially diluted in 100% DMSO across 11 columns within a series. Columns 12 and 24 were used as DMSO reference and contained no compound. For multiple compound concentration-response experiments, the compound aliquots ([…]) were robotically predispensed directly into black 384-well polypropylene PCR microplates (Abgene: TF-0384/k) using a Cartesian Hummingbird liquid handler (DigiLab, Holliston, Mass.). Following compound dispense, protein and dye solutions were added to achieve the final assay volume of 3 μL. The assay solutions were overlayed with 1 μL of silicone oil (Fluka, type DC 200: 85411) to prevent evaporation.
Assay plates were robotically loaded onto a thermostatically controlled PCR-type thermal block and then heated from 40 to 90° C. at a ramp-rate of 1° C./min for all experiments. Fluorescence was measured by continuous illumination with UV light (Hamamatsu LC6) supplied via fiber optics and filtered through a band-pass filter (380-400 nm; >60D cutoff). Fluorescence emission of the entire 384-well plate was detected by measuring light intensity using a CCD camera (Sensys, Roper Scientific) filtered to detect 500±25 nm, resulting in simultaneous and independent readings of all 384 wells. A single image with 20-sec exposure time was collected at each temperature, and the sum of the pixel intensity in a given area of the assay plate was recorded vs temperature and fit to standard equations to yield the Tm (J Biomol Screen 2001, 6, 429-40).
Thermodynamic parameters necessary for fitting compound binding for each proMMP were estimated by differential scanning calorimetry (DSC) and from ThermoFluor® data. The heat capacity of unfolding for each protein was estimated from the molecular weight and from ThermoFluor® dosing data.
ThermoFluor® with proMMP9(67-444;ΔFnII) (SEQ ID NO:5)
The protein sample preparations had to include a desalting buffer exchange step via a PD-10 gravity column (GE Healthcare). The desalting buffer exchange was performed prior to diluting the protein to the final assay concentration of 3.5 μM proMMP9(67-444;ΔFnII) (SEQ ID NO:5). The concentration of proMMP9(67-444;ΔFnII) (SEQ ID NO:5) was determined spectrophotometrically based on a calculated extinction coefficient of ε280=33900 M^−1cm^−1, a calculated molecular weight of 22.6 kDa, and calculated pI of 5.20. ThermoFluor® reference conditions were defined as follows: 80 μg/mL (3.5 μM) proMMP9(67-444;ΔFnII) (SEQ ID NO:5), 50 μM 1,8-ANS, pH 7.0 Buffer (50 mM HEPES pH 7.0, 100 mM NaCl, 0.001% Tween-20, 2.5 mM MgCl2, 300 μM CaCl2). The thermodynamic parameters for proMMP9(67-444;ΔFnII) (SEQ ID NO:5) are as follows: Tm (° C.)=63 (+/−0.1), ΔUH(Tm) (cal mol^−1)=105000(+/−5000), ΔUS(Tm) (cal mol^−1 K^−1)=[…], ΔUCp (cal mol^−1 K^−1)=2000.

[2] = molecular target: T2, full-length proMMP9(1-707) (SEQ ID NO:1), activation by catalytic MMP3 (Homo sapiens, UniProt P14780, R574P); assay: proMMP9/MMP3 P126 Activation Assay; assay type: biochemical
T2 construct: made in house; host or cells: HEK293 (proMMP9, secreted); E. coli (MMP3)
T2 sequence (P14780 20-707 R574P): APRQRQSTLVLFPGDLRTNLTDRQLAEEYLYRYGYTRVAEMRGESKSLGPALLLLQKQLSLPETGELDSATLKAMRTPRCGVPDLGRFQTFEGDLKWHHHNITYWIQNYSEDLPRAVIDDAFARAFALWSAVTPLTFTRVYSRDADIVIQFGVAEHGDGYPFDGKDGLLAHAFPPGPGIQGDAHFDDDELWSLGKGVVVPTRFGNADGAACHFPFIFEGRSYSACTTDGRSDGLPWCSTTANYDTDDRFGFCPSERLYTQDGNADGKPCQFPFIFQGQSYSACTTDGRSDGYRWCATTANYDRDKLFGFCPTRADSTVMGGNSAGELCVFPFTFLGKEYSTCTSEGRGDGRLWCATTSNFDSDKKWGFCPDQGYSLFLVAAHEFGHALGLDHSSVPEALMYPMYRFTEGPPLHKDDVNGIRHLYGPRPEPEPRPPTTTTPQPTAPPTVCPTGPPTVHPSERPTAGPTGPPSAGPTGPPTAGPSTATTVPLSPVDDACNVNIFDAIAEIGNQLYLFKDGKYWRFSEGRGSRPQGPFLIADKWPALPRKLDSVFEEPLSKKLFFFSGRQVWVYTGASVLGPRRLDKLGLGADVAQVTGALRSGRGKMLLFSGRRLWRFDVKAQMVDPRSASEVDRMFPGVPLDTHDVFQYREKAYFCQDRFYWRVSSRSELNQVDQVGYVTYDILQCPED
Experimental: proMMP9/MMP3 P126 Activation Assay
The reaction volume was 50 μL. […] Reactivity of residual MMP3 towards P-126 substrate was minimal under these conditions.

[3] = molecular target: T3, proMMP9(20-445;ΔFnII) (SEQ ID NO:6) (Homo sapiens, UniProt P14780, DEL216-390); assay: ThermoFluor binding assay with proMMP9(20-445;ΔFnII)
T3 construct: start methionine (N); made in house; host or cells: E. coli BL21(DE3) RIL
T3 sequence (P14780 with tags, fused parts or gaps DEL216-390): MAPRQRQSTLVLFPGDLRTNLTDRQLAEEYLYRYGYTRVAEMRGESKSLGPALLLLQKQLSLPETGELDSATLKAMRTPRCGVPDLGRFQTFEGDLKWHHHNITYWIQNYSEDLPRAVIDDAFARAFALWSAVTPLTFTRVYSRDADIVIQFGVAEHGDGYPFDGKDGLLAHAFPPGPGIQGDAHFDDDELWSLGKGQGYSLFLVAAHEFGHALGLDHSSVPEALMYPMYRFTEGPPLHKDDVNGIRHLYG
Procedure, shortened: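 Thermal-shift binding using 2.8 μM proMMP9(20-445;ΔFnII) with 50 μM 1,8-ANS in 50 mM HEPES pH 7.0, 100 mM NaCl, 0.001% Tween-20, 2.5 mM MgCl2, 300 μM CaCl2. Compound serially diluted; heated 40–90 °C at 1 °C/min, fluorescence 500 nm. Tm shifts fitted using DSC/ThermoFluor-derived thermodynamic parameters.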

Row | Structure (SMILES) | Kd [1] | IC50 [2] | Kd [3]
1 | CCN1CCN(C(=O)c2ccc(-c3csc(Nc4cc(S(N)(=O)=O)ccc4OC(C)C)n3)cn2)CC1 [Example 47, 4-Isopropoxy-3-{4-[6-(4-ethyl-piperazine-1-carbonyl)-pyridin-3-yl]-thiazol-2-ylamino}-benzenesulfonamide.TFA] | 1500 nM | 980 nM | 900 nM
2 | CC(C)Oc1ccc(S(N)(=O)=O)cc1Nc1nc(-c2ccc(C(=O)N3CCCN(C)CC3)nc2)cs1 [Example 49, 3-{4-[6-(4-Methyl-[1,4]diazepane-1-carbonyl)-pyridin-3-yl]-thiazol-2-ylamino}-4-isopropoxy-benzenesulfonamide.TFA] | 2000 nM | 1000 nM | 830 nM
3 | CC(C)Oc1ccc(S(N)(=O)=O)cc1Nc1nc(-c2ccc(C(=O)N3CCN(C(C)C)CC3)nc2)cs1 [Example 51, 4-Isopropoxy-3-{4-[6-(4-isopropyl-piperazine-1-carbonyl)-pyridin-3-yl]-thiazol-2-ylamino}-benzenesulfonamide.TFA] | 2700 nM | 1800 nM | 1200 nM
4 | CCN1CCCN(C(=O)c2ccc(-c3csc(Nc4cc(S(N)(=O)=O)ccc4OC(C)C)n3)cn2)CC1 [Example 52, 3-{4-[6-(4-Ethyl-[1,4]diazepane-1-carbonyl)-pyridin-3-yl]-thiazol-2-ylamino}-4-isopropoxy-benzenesulfonamide.TFA] | 2200 nM | 1000 nM | 1200 nM
5 | CC(C)Oc1ccc(S(N)(=O)=O)cc1Nc1nc(-c2ccc(C(=O)N(C)CCN(C)C)nc2)cs1 [Example 53, 5-[2-(2-Isopropoxy-5-sulfamoyl-phenylamino)-thiazol-4-yl]-pyridine-2-carboxylic acid (2-dimethylamino-ethyl)-methyl-amide.TFA] | 2300 nM | 970 nM | 890 nM
6 | CC(C)Oc1ccc(S(N)(=O)=O)cc1Nc1nc(-c2ccc(C(=O)N3CCN(C(=O)OC(C)(C)C)CC3)nc2)cs1 [Example 54, 4-{5-[2-(2-Isopropoxy-5-sulfamoyl-phenylamino)-thiazol-4-yl]-pyridine-2-carbonyl}-piperazine-1-carboxylic acid tert-butyl ester.TFA] | 2500 nM | 3700 nM | 960 nM
7 | CC(C)Oc1ccc(S(N)(=O)=O)cc1Nc1nc(-c2ccc(C(=O)N3CCNCC3)nc2)cs1 [Example 58, 4-Isopropoxy-3-{4-[6-(piperazine-1-carbonyl)-pyridin-3-yl]-thiazol-2-ylamino}-benzenesulfonamide.TFA] | 3100 nM | 1400 nM | 1200 nM
8 | CC(C)Oc1ccc(S(N)(=O)=O)cc1Nc1nc(-c2ccc(C(=O)NC3CC(C)(C)N(C)C(C)(C)C3)nc2)cs1 [Example 84, 5-(2-((2-Isopropoxy-5-sulfamoylphenyl)amino)thiazol-4-yl)-N-(1,2,2,6,6-pentamethylpiperidin-4-yl)picolinamide.TFA] | 200 nM | 260 nM | 250 nM

Second part, the compound after the results:

Row | Kd [1] | IC50 [2] | Kd [3] | Structure (SMILES)
9 | 4100 nM | 1100 nM | 2300 nM | CC(C)Oc1ccc(S(N)(=O)=O)cc1Nc1nc(-c2ccc(C(=O)N3CCC(N(C)C)CC3)nc2)cs1 [Example 48, 3-{4-[6-(4-Dimethylamino-piperidine-1-carbonyl)-pyridin-3-yl]-thiazol-2-ylamino}-4-isopropoxy-benzenesulfonamide.TFA]
10 | 130 nM | 160 nM | 90 nM | CC(C)Oc1ccc(S(N)(=O)=O)cc1Nc1nc(-c2ccc(C(=O)NCCN(C)C)nc2)cs1 [Example 50, 5-[2-(2-Isopropoxy-5-sulfamoyl-phenylamino)-thiazol-4-yl]-pyridine-2-carboxylic acid (2-dimethylamino-ethyl)-amide.TFA]
11 | 2600 nM | 420 nM | 810 nM | CC(C)Oc1ccc(S(N)(=O)=O)cc1Nc1nc(-c2ccc(C(=O)NC3CCN(C)CC3)nc2)cs1 [Example 55, 5-[2-(2-Isopropoxy-5-sulfamoyl-phenylamino)-thiazol-4-yl]-pyridine-2-carboxylic acid (1-methyl-piperidin-4-yl)-amide.TFA]
12 | 1500 nM | 390 nM | 640 nM | CC(C)Oc1ccc(S(N)(=O)=O)cc1Nc1nc(-c2ccc(CO)nc2)cs1 [Example 56, 3-[4-(6-Hydroxymethyl-pyridin-3-yl)-thiazol-2-ylamino]-4-isopropoxy-benzenesulfonamide]
13 | 2200 nM | 610 nM | 510 nM | CC(C)Oc1ccc(S(N)(=O)=O)cc1Nc1nc(-c2ccc(NCC3CC3)nc2)cs1 [Example 62, 3-((4-(6-((Cyclopropylmethyl)amino)pyridin-3-yl)thiazol-2-yl)amino)-4-isopropoxybenzenesulfonamide.TFA]
14 | 280 nM | 150 nM | 210 nM | CC(C)Oc1ccc(S(N)(=O)=O)cc1Nc1nc(-c2ccc(NCCCn3ccnc3)nc2)cs1 [Example 63, 3-((4-(6-((3-(1H-Imidazol-1-yl)propyl)amino)pyridin-3-yl)thiazol-2-yl)amino)-4-isopropoxybenzenesulfonamide.TFA]
15 | 2500 nM | 120 nM | 260 nM | CC(C)Oc1ccc(S(N)(=O)=O)cc1Nc1nc(-c2ccc(N3CCNC(=O)C3)nc2)cs1 [Example 64, 4-Isopropoxy-3-((4-(6-(3-oxopiperazin-1-yl)pyridin-3-yl)thiazol-2-yl)amino)benzenesulfonamide.TFA]
16 | 32000 nM | ~20000 nM | 4600 nM | CC(C)CCNC(=O)c1ccc(-c2csc(Nc3cc(S(N)(=O)=O)ccc3OC(C)C)n2)cn1 [Example 85, N-Isopentyl-5-(2-((2-isopropoxy-5-sulfamoylphenyl)amino)thiazol-4-yl)picolinamide.TFA]
17 | 3400 nM | 520 nM | 580 nM | COC/C=C/c1ccc(-c2csc(Nc3cc(S(N)(=O)=O)ccc3OC(C)C)n2)cn1 [Example 93, (E)-4-Isopropoxy-3-((4-(6-(3-methoxyprop-1-en-1-yl)pyridin-3-yl)thiazol-2-yl)amino)benzenesulfonamide.TFA]
18 | 1300 nM | 520 nM | 430 nM | COCCCc1ccc(-c2csc(Nc3cc(S(N)(=O)=O)ccc3OC(C)C)n2)cn1 [Example 94, 4-Isopropoxy-3-((4-(6-(3-methoxypropyl)pyridin-3-yl)thiazol-2-yl)amino)benzenesulfonamide.TFA]
